Source: US10093630B2, “Pyrazole compounds and methods of making and using same” (ABIDE THERAPEUTICS, INC., priority 2014, dated 2018)
Where two headings read alike, the source gives them in different places.

What was measured:
Experiment in all cases: In vitro competitive activity-based protein profiling (gel-based, FP-Rh or HT-01 probe)
Assay type in all cases: biochemical
PLA2G7 = biological target: T1, PLA2G7 (Mus musculus, UniProt Q60963); settings: for inhibition at 1 µM: 1 μM inhibitor, read-out: % Inhibition at 1 μM, D = PLA2G7; for inhibition at 10 µM: 10 μM inhibitor, read-out: % Inhibition at 10 μM, D = PLA2G7; for IC50: mouse brain membrane fraction or cell lysates, 30 min preincubation at 37° C.
T1 construct: Proteomes (mouse brain membrane fraction or cell lysates); from tissue; host or cells: mouse brain membrane fraction (or cell lysates, not specified)
T1 sequence (Q60963 22-440): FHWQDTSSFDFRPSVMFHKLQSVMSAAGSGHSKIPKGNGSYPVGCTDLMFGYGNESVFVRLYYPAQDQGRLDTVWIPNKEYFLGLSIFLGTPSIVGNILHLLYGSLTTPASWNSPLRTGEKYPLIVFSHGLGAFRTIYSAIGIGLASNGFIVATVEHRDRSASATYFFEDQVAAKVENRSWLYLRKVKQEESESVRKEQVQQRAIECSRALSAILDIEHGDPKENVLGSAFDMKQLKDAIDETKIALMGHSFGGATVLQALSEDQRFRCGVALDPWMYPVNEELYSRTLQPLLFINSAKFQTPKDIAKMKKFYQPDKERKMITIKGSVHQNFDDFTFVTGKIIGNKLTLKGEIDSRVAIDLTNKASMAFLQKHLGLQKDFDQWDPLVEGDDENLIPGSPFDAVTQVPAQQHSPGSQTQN
In short: (§1)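 Read-out: fluorescent band intensity on SDS-PAGE gels, reporting remaining serine hydrolase activity. Before that, proteome (mouse brain membranes or cell lysates, 1.0 mg/mL) saw a range of inhibitor concentrations for 30 min at 37° C, followed by 30 min probe labelling (FP-Rh or HT-01).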

FAAH = biological target: T2, FAAH (Mus musculus, UniProt O08914); settings: for inhibition at 1 µM: 1 μM inhibitor, read-out: % Inhibition at 1 μM, B = FAAH; for inhibition at 10 µM: 10 μM inhibitor, read-out: % Inhibition at 10 μM, B = FAAH; for IC50: mouse brain membrane fraction or cell lysates, 30 min preincubation at 37° C., read-out: Mouse (IC50 value, nM) FAAH
T2 construct: Proteomes (mouse brain membrane fraction or cell lysates); from tissue; host or cells: mouse brain membrane fraction (or cell lysates, not specified)
T2 sequence (O08914 1-579): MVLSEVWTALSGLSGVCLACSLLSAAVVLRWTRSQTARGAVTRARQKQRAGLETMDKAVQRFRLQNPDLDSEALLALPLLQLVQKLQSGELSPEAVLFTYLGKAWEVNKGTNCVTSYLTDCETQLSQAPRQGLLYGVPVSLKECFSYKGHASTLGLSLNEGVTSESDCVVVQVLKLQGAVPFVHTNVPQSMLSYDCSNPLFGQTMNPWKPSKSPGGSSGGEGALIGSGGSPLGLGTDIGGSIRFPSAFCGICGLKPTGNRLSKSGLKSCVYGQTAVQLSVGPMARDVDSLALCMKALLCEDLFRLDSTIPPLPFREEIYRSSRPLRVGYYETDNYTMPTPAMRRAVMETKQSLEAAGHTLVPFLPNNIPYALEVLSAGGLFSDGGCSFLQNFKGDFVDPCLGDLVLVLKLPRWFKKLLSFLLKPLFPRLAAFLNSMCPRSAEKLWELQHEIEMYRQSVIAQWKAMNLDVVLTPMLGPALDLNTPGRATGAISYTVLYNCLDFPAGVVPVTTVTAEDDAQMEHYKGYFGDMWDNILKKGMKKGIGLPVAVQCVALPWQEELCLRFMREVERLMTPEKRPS
In short: as §1

MAGL = biological target: T3, MAGL (Mus musculus, UniProt O35678); settings: for inhibition at 1 µM: 1 μM inhibitor; for inhibition at 10 µM: 10 μM inhibitor; for IC50: mouse brain membrane fraction or cell lysates, 30 min preincubation at 37° C., read-out: Mouse (IC50 value, nM) MAGL
T3 construct: Proteomes (mouse brain membrane fraction or cell lysates); from tissue; host or cells: mouse brain membrane fraction (or cell lysates, not specified)
T3 sequence (O35678 1-303): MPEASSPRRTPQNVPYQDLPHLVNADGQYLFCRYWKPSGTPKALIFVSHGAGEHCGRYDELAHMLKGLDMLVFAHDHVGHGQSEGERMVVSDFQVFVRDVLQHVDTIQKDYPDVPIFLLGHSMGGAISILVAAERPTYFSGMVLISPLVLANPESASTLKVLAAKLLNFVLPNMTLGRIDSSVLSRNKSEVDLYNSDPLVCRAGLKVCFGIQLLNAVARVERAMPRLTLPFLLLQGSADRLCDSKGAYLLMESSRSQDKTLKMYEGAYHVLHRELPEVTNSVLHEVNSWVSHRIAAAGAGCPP
In short: as §1

ABHD6 = biological target: T4, ABHD6 (Mus musculus, UniProt Q8R2Y0); settings: for inhibition at 1 µM: 1 μM inhibitor, read-out: % Inhibition at 1 μM, C = ABHD6; for inhibition at 10 µM: 10 μM inhibitor, read-out: % Inhibition at 10 μM, C = ABHD6; for IC50: mouse brain membrane fraction or cell lysates, 30 min preincubation at 37° C., read-out: Mouse (IC50 value, nM) ABHD6
T4 construct: Proteomes (mouse brain membrane fraction or cell lysates); from tissue; host or cells: mouse brain membrane fraction (or cell lysates, not specified)
T4 sequence (Q8R2Y0 1-336): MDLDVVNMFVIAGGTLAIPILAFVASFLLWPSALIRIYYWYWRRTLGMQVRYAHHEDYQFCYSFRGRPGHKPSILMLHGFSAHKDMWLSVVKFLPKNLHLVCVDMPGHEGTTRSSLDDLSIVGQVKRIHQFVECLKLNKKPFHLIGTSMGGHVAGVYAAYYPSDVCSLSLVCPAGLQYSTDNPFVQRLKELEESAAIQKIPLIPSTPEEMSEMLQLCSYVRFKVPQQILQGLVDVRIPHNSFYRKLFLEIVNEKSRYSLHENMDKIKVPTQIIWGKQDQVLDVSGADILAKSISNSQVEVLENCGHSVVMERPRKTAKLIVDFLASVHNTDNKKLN
In short: as §1

Row | inhibition at 1 µM (PLA2G7; gel-based competitive ABPP) | inhibition at 1 µM (FAAH; gel-based competitive ABPP) | inhibition at 1 µM (MAGL; gel-based competitive ABPP) | inhibition at 1 µM (ABHD6; gel-based competitive ABPP) | inhibition at 1 µM (PLA2G7) | inhibition at 10 µM (PLA2G7) | inhibition at 1 µM (FAAH) | inhibition at 10 µM (FAAH) | inhibition at 1 µM (MAGL) | inhibition at 10 µM (MAGL) | inhibition at 1 µM (ABHD6) | inhibition at 10 µM (ABHD6) | IC50 (ABHD6) | IC50 (PLA2G7) | IC50 (FAAH) | IC50 (MAGL) | SMILES
1 | > 75% | > 75% | > 75% | > 75% |  |  |  |  |  |  |  |  |  |  |  |  | COc1ccccc1CN1CCN(C(=O)n2cc(C(F)(F)F)cn2)CC1 [Example 278, (4-(2-Methoxybenzyl)piperazin-1-yl)(4-(trifluoromethyl)-1H-pyrazol-1-yl)methanone]
2 |  |  |  |  | < 25% | > 75% | < 25% | > 75% | 25 to 75% | > 75% | 25 to 75% | > 75% |  |  |  |  | O=C(c1ccccc1)N1CCCN(C(=O)n2cc(Cl)cn2)CC1 [Example 192, (4-Benzoyl-1,4-diazepan-1-yl)(4-chloro-1H-pyrazol-1-yl)methanone]
3 |  |  |  |  | < 25% | > 75% | < 25% | < 25% | < 25% | > 75% | > 75% | > 75% | 100 to 1000 nM |  |  |  | CC(C)c1cnn(C(=O)N2CCN(Cc3c(N4CCCC4)cccc3C(F)(F)F)CC2)c1 [Example 112, (4-Isopropyl-1H-pyrazol-1-yl)(4-(2-(pyrrolidin-1-yl)-6-(trifluoromethyl)benzyl)piperazin-1-yl)methanone]
4 |  |  |  |  | > 75% | > 75% | < 25% | > 75% | < 25% | 25 to 75% | 25 to 75% | > 75% |  |  |  |  | Cc1cnn(C(=O)N2CCN(C(=O)OC(C)(C)C)CC2)c1 [Example 5, tert-Butyl 4-(4-methyl-1H-pyrazole-1-carbonyl)piperazine-1-carboxylate]
5 | < 25% | > 75% | 25 to 75% | 25 to 75% |  |  |  |  |  |  |  |  | > 1000 nM | > 1000 nM | < 100 nM | 100 to 1000 nM | CCN(Cc1cccc(N2CCOCC2)c1)C(=O)n1cc(C(F)(F)F)cn1 [Example 261, N-Ethyl-N-(3-morpholinobenzyl)-4-(trifluoromethyl)-1H-pyrazole-1-carboxamide]
6 |  |  |  |  | > 75% | > 75% | < 25% | > 75% | > 75% | > 75% | > 75% | > 75% | < 100 nM |  | > 1000 nM | < 100 nM | O=C(N1CCN(Cc2c(N3CCCC3)cccc2C(F)(F)F)CC1)n1cc(C(F)(F)F)cn1 [Example 110, (4-(2-(Pyrrolidin-1-yl)-6-(trifluoromethyl)benzyl)piperazin-1-yl)(4-(trifluoromethyl)-1H-pyrazol-1-yl)methanone]
7 |  |  |  |  | > 75% | > 75% |  | > 75% |  | 25 to 75% | > 75% | > 75% | 100 to 1000 nM |  |  |  | O=C(N1CCN(Cc2cccnc2)CC1)n1cc(-c2ccccc2)cn1 [Example 60, (4-Phenyl-1H-pyrazol-1-yl)(4-(pyridin-3-ylmethyl)piperazin-1-yl)methanone]
8 |  |  |  |  | > 75% | > 75% | > 75% | > 75% | > 75% | > 75% | > 75% | > 75% | 100 to 1000 nM |  | < 100 nM | < 100 nM | Cc1cc(-c2ccccc2)ccc1CN1CCN(C(=O)n2cc(C(F)(F)F)cn2)CC1 [Example 142, (4-((3-Methylbiphenyl-4-yl)methyl)piperazin-1-yl)(4-(trifluoromethyl)-1H-pyrazol-1-yl)methanone]
9 |  |  |  |  | > 75% | > 75% | > 75% | > 75% | < 25% | > 75% | < 25% | > 75% |  |  |  |  | CN(CCN(C)C(=O)n1cc(C(F)(F)F)cn1)C(=O)c1ccccc1 [Example 160, N-methyl-N-(2-(N-methylbenzamido)ethyl)-4-(trifluoromethyl)-1H-pyrazole-1-carboxamide]
10 |  |  |  |  | < 25% | > 75% | < 25% | > 75% | < 25% | 25 to 75% | > 75% | > 75% |  |  |  |  | CN1CCN(C(=O)n2cc(Cl)cn2)CC1 [Example 185, (4-Chloro-1H-pyrazol-1-yl)(4-methylpiperazin-1-yl)methanone]
11 |  |  |  |  | > 75% | > 75% | 25 to 75% | > 75% | < 25% | 25 to 75% | < 25% | > 75% |  |  |  |  | CS(=O)(=O)N1CCCN(C(=O)n2cc(C(F)(F)F)cn2)CC1 [Example 155, (4-(Methylsulfonyl)-1,4-diazepan-1-yl)(4-(trifluoromethyl)-1H-pyrazol-1-yl)methanone]
12 |  |  |  |  | > 75% | > 75% | > 75% | > 75% | > 75% | > 75% | > 75% | > 75% |  |  |  |  | O=C(N1CCN(c2ccccc2)CC1)n1cc(C(F)(F)F)cn1 [Example 202, (4-Phenylpiperazin-1-yl)(4-(trifluoromethyl)-1H-pyrazol-1-yl)methanone]
13 | < 25% | > 75% | > 75% | > 75% |  |  |  |  |  |  |  |  |  |  |  |  | N#Cc1cnn(C(=O)N2CCCN(Cc3cccc(Oc4ccccc4)c3)CC2)c1 [Example 299, 1-(4-(3-Phenoxybenzyl)-1,4-diazepane-1-carbonyl)-1H-pyrazole-4-carbonitrile]
14 | < 25% | > 75% | > 75% | < 25% |  |  |  |  |  |  |  |  | > 1000 nM | > 1000 nM | < 100 nM | > 1000 nM | CCN(Cc1ccc(OC)cc1)C(=O)n1cc(C(F)(F)F)cn1 [Example 259, N-Ethyl-N-(4-methoxybenzyl)-4-(trifluoromethyl)-1H-pyrazole-1-carboxamide]
